Measured values reported in patent US8241674B2, “Methods and compositions for heavy metal detoxification” (priority 2007, dated 2012).
Read-outs that look alike come from different tables or passages of the source.

Key:
[1] = tested on: GST enzyme; assay: GST activity assay in RL-34 cell lysate after treatment; format: cell-based, rat; conditions: RL-34 cells, 2 days, ratio over DMSO control
[2] = tested on: NQO1 enzyme; assay: NADPH quinone oxido reductase (NQO1) activity assay in RL-34 cell lysate after treatment; conditions: RL-34 cells, 2 days, ratio of treated over vehicle control
[3] = tested on: heme oxygenase (HMOX1); conditions: HepG2 cells, 8 hours
[4] = tested on: heme oxygenase (HO-1) luciferase reporter; assay: Heme oxygenase (HO-1) luciferase reporter in HepG2 cells; conditions: HepG2 cell line; for Fold Induction of heme oxygenase luciferase activity: 24 hours, ratio over vehicle control, concentration not given
[5] = tested on: phase II enzymes (GSTA1 and NQO1); conditions: HepG2 cells, 8 hours, average of GSTA1 and NQO1
[6] = tested on: metallothionein (MT 1, 2); conditions: HepG2 cells, 8 hours

OCc1c[nH]c2ccccc12 [I3C]
Fold Induction of GST activity ([1]; 25 ug/mL): 1.1 fold | Induction of NQO1 activity ([2]; 25 ug/mL): 2.4

CC(C)Oc1ccc2c(=O)c(-c3ccccc3)coc2c1 [Ipriflavone]
Fold Induction of GST activity ([1]; 20 ug/mL): 1.1 fold | Induction of NQO1 activity ([2]; 20 ug/mL): 0.8

O=C([O-])CC(O)(CC(=O)[O-])C(=O)[O-].[K+].[K+].[K+] [K-Citrate]
Fold Induction of GST activity ([1]; 20 ug/mL): 1.1 fold | Induction of NQO1 activity ([2]; 20 ug/mL): 0.9

c1ccc2c(Cc3c[nH]c4ccccc34)c[nH]c2c1 [DIM]
Induction of NQO1 activity ([2]; 25 ug/mL): 1.5

Oc1ccc(C=Cc2cc(O)cc(O)c2)cc1 [Resveratrol]
Induction of NQO1 activity ([2]; 20 ug/mL): 2.2

O=c1c(-c2ccc(O)cc2)coc2cc(O)cc(O)c12 [Bonistein]
Fold Induction of GST activity ([1]; 20 ug/mL): 1.0 fold | Induction of NQO1 activity ([2]; 20 ug/mL): 1.2

[Cl-].[Cl-].[Zn+2] [ZnCl2]
HMOX1 Ratio to DMSO ([3]; 10 μg/ml): 0.97 | Fold Induction of heme oxygenase luciferase activity [4]: 1.5 fold | expression of heme oxygenase promoter activity (in words) ([4]; thirty percent induction over DMSO control considered active): induced | Phase II (ave) Ratio to DMSO ([5]; 10 μg/ml): 0.94 | MT 1,2 (ave) Ratio to DMSO ([6]; 10 μg/ml): 12.43

O=C(CCc1ccc(O)cc1)c1c(O)cc(O)cc1O[C@@H]1O[C@H](CO)[C@@H](O)[C@H](O)[C@H]1O [Phloridzin]
Fold Induction of GST activity ([1]; 20 ug/mL): 1.0 fold | Induction of NQO1 activity ([2]; 20 ug/mL): 1.0

CC/C=C\C/C=C\C/C=C\C/C=C\C/C=C\C/C=C\CCC(=O)O [DHA]
Fold Induction of GST activity ([1]; 20 ug/mL): 1.0 fold | Induction of NQO1 activity ([2]; 20 ug/mL): 0.9

O=C(/C=C/c1ccc(O)c(O)c1)O[C@@H]1C[C@](O)(C(=O)O)C[C@@H](O)[C@H]1O [chlorogenic acid]
Fold Induction of GST activity ([1]; 25 ug/mL): 1.1 fold | Induction of NQO1 activity ([2]; 25 ug/mL): 1.2

CC1(C)C=Cc2c(ccc3c2OC[C@@H](c2ccc(O)cc2O)C3)O1 [Glabridin]
Fold Induction of GST activity ([1]; 20 ug/mL): 1.0 fold | Induction of NQO1 activity ([2]; 20 ug/mL): 1.0

C[C@@H]1O[C@@H](OC[C@H]2O[C@@H](Oc3c(-c4ccc(O)c(O)c4)oc4cc(O)cc(O)c4c3=O)[C@H](O)[C@@H](O)[C@@H]2O)[C@H](O)[C@H](O)[C@H]1O [Rutin]
Fold Induction of GST activity ([1]; 20 ug/mL): 1.0 fold | Induction of NQO1 activity ([2]; 20 ug/mL): 0.9

O=C1O[C@H]([C@@H](O)CO)C(O)=C1O [Vitamin C]
Fold Induction of GST activity ([1]; 20 ug/mL): 1.1 fold | Induction of NQO1 activity ([2]; 20 ug/mL): 0.9

C=C1CC[C@@H]2[C@](C)(CO)[C@H](O)CC[C@@]2(C)[C@@H]1C/C=C1/C(=O)OC[C@H]1O [Andrographis, 3-(2-(Decahydro-6-hydroxy-5-(hydroxymethyl)-5,8a-dimethyl-2-methylenenaphthyl)ethylidene)dihydro-4-hydroxyfuran-2(3H)-one]
HMOX1 Ratio to DMSO ([3]; 25 μg/ml): 2.43 | Fold Induction of heme oxygenase luciferase activity [4]: 4.4 fold | Fold Induction of GST activity ([1]; 25 ug/mL): 1.4 fold | Phase II (ave) Ratio to DMSO ([5]; 25 μg/ml): 2.29 | Induction of NQO1 activity ([2]; 25 ug/mL): 4.5 | MT 1,2 (ave) Ratio to DMSO ([6]; 25 μg/ml): 0.87
